The source of these data is ChEMBL document CHEMBL4613318, “Benzofuran-Based Carboxylic Acids as Carbonic Anhydrase Inhibitors and Antiproliferative Agents against Breast Cancer” (ACS Med Chem Lett, 2020).

Broadly, the IC50 is the concentration that inhibits the measured activity by half. In general, Ki refers to a measure of affinity in units of concentration, obtained from inhibition or displacement.

One assay deals with MDA-MB-231. As to the kind of experiment: cells. Conditions: Homo sapiens, MDA-MB-231, 48 h.
A further assay concerns MCF7. As to the kind of experiment: Antiproliferative activity against human MCF7 cells assessed as reduction in cell viability incubated for 48 hrs by SRB assay. Conditions: MCF7, 48 h. It counts as functional, cell-based. (In general: The SRB assay estimates cell density from bound dye.)
For assay [1], the species on record is Homo sapiens. As to the kind of experiment: Selectivity index, ratio of Ki for recombinant human carbonic anhydrase 1 preincubated with enzyme for 15 mins by phenol red dye based stopped flow CO2 hydration assay to Ki for recombinant human carbonic anhydrase 12 preincubated with enzyme for 15 mins by phenol red dye based stopped flow CO2 hydration assay.
The target in the next assay is Carbonic anhydrase 12 (Homo sapiens, UniProt O43570). As to the kind of experiment: Inhibition of recombinant human carbonic anhydrase 12 preincubated with enzyme for 15 mins by phenol red dye based stopped flow CO2 hydration assay.
Chain of Carbonic anhydrase 12 (O43570 whole entry): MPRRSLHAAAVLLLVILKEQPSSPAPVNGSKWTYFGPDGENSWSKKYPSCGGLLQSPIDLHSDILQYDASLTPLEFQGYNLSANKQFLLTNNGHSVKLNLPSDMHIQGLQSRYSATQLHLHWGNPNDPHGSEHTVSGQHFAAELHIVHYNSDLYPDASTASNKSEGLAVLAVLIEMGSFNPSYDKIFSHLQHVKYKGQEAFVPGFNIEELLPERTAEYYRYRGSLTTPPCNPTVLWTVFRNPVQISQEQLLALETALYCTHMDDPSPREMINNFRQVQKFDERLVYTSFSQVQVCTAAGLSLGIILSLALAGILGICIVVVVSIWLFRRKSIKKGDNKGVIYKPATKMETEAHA
In another assay the target is Carbonic anhydrase 9 (Homo sapiens, UniProt Q16790).
For assay [2], the species on record is Homo sapiens. As to the kind of experiment: Selectivity index, ratio of Ki for recombinant human carbonic anhydrase 1 preincubated with enzyme for 15 mins by phenol red dye based stopped flow CO2 hydration assay to Ki for recombinant human carbonic anhydrase 9 preincubated with enzyme for 15 mins by phenol red dye based stopped flow CO2 hydration assay.
Another assay deals with Carbonic anhydrase 2 (Homo sapiens, UniProt P00918). Put plainly: Inhibition of recombinant human carbonic anhydrase 2 preincubated with enzyme for 15 mins by phenol red dye based stopped flow CO2 hydration assay.
A further assay addresses Carbonic anhydrase 1 (Homo sapiens, UniProt P00915). As to the kind of experiment: Inhibition of recombinant human carbonic anhydrase 1 preincubated with enzyme for 15 mins by phenol red dye based stopped flow CO2 hydration assay.
For assay [3], the species on record is Homo sapiens. Put plainly: Selectivity index, ratio of Ki for recombinant human carbonic anhydrase 2 preincubated with enzyme for 15 mins by phenol red dye based stopped flow CO2 hydration assay to Ki for recombinant human carbonic anhydrase 12 preincubated with enzyme for 15 mins by phenol red dye based stopped flow CO2 hydration assay.
For assay [4], the species on record is Homo sapiens. Put plainly: Selectivity index, ratio of Ki for recombinant human carbonic anhydrase 2 preincubated with enzyme for 15 mins by phenol red dye based stopped flow CO2 hydration assay to Ki for recombinant human carbonic anhydrase 9 preincubated with enzyme for 15 mins by phenol red dye based stopped flow CO2 hydration assay.

Chain of Carbonic anhydrase 1 (P00915 whole entry): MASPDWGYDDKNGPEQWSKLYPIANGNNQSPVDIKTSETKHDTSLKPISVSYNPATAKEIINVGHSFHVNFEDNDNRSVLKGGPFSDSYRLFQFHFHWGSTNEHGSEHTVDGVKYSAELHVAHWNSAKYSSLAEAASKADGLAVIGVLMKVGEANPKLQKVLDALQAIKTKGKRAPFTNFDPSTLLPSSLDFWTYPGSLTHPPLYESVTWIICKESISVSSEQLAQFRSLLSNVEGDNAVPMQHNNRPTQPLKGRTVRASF
Description for Carbonic anhydrase 9: Inhibition of recombinant human carbonic anhydrase 9 preincubated with enzyme for 15 mins by phenol red dye based stopped flow CO2 hydration assay

`COc1cccc2c1C(=O)c1c(O)c3c(c(O)c1C2=O)C[C@@](O)(C(=O)CO)C[C@@H]3O[C@H]1C[C@H](N)[C@H](O)[C@H](C)O1` [DOXORUBICIN]: the half-inhibitory concentration (IC50) was 2.36 µM with MDA-MB-231 and 1.43 µM with MCF7.
Consider `O=C(Nc1cc2cc(Br)ccc2o1)Nc1ccccc1C(=O)O`, for which the Ratio Ki in the assay filed under Homo sapiens [1] stood at 13; in the assay filed under Homo sapiens [2], 20. Also, the inhibitory constant (Ki) was 8 µM on Carbonic anhydrase 12, 5.1 µM at Carbonic anhydrase 9, 4.1 µM on Carbonic anhydrase 2 and above 100 µM on Carbonic anhydrase 1.
As for `Cc1c(NC(=O)Nc2ccc(C(=O)NCC(=O)O)cc2)oc2ccccc12`, the figures for the Ratio Ki in the assay filed under Homo sapiens [1], in the assay filed under Homo sapiens [2] and in the assay filed under Homo sapiens [3] were 24, 2 and 10, respectively. The Ki at Carbonic anhydrase 12 was 2.7 µM; on Carbonic anhydrase 9, 35.7 µM; on Carbonic anhydrase 2 it was 25.8 µM; at Carbonic anhydrase 1 it was 64.7 µM.
On to `O=C(Nc1ccc(C(=O)O)cc1)Nc1cc2cc(Br)ccc2o1`, for which the inhibition constant (Ki) at Carbonic anhydrase 12 stood at 1.6 µM; on Carbonic anhydrase 9, 0.56 µM; at Carbonic anhydrase 2, 7.2 µM; on Carbonic anhydrase 1, 20.5 µM.
Regarding `O=C(Nc1cccc(C(=O)O)c1)Nc1cc2cc(Br)ccc2o1`, the Ki at Carbonic anhydrase 12 stood at 2.3 µM; at Carbonic anhydrase 9, 0.79 µM; at Carbonic anhydrase 2, 37 µM; at Carbonic anhydrase 1, 33.2 µM.
For `Cc1c(NC(=O)Nc2ccccc2C(=O)O)oc2ccccc12`, the Ratio Ki is above 29 in the assay listed under Homo sapiens [1], 5 in the assay listed under Homo sapiens [4], above 63 in the assay filed under Homo sapiens [2] and 2 in the assay filed under Homo sapiens [3]. In addition, the inhibition constant Ki was 3.4 µM at Carbonic anhydrase 12, 1.6 µM at Carbonic anhydrase 9, 7.9 µM at Carbonic anhydrase 2 and above 100 µM at Carbonic anhydrase 1.
On to `Cc1c(NC(=O)Nc2cccc(C(=O)O)c2)oc2ccccc12`, for which the Ki on Carbonic anhydrase 12 is 2.2 µM; at Carbonic anhydrase 9 it was 0.91 µM; on Carbonic anhydrase 2 it was 10.1 µM; at Carbonic anhydrase 1 it was 32.8 µM.
Consider `Cc1c(NC(=O)Nc2ccc(C(=O)O)cc2)oc2ccccc12`, for which the Ratio Ki was 5 in the assay filed under Homo sapiens [1] and 4 in the assay filed under Homo sapiens [3]. Moreover, the inhibitory constant (Ki) on Carbonic anhydrase 12 stood at 0.88 µM; on Carbonic anhydrase 9, 5.1 µM; on Carbonic anhydrase 2, 3.1 µM; on Carbonic anhydrase 1 it was 4.5 µM.
`O=C(O)CNC(=O)c1ccc(NC(=O)Nc2cc3cc(Br)ccc3o2)cc1`: the Ratio Ki is 10 in the assay filed under Homo sapiens [1], 4 in the assay filed under Homo sapiens [4], 5 in the assay listed under Homo sapiens [2] and 7 in the assay filed under Homo sapiens [3]. In addition, the Ki on Carbonic anhydrase 12 is 10.1 µM; on Carbonic anhydrase 9, 19 µM; at Carbonic anhydrase 2 it was 67.1 µM; at Carbonic anhydrase 1, above 100 µM.
